Test [1] has as its target T1, Orexin receptor type 2 (Homo sapiens, UniProt O43614).
T1 sequence (O43614 whole entry): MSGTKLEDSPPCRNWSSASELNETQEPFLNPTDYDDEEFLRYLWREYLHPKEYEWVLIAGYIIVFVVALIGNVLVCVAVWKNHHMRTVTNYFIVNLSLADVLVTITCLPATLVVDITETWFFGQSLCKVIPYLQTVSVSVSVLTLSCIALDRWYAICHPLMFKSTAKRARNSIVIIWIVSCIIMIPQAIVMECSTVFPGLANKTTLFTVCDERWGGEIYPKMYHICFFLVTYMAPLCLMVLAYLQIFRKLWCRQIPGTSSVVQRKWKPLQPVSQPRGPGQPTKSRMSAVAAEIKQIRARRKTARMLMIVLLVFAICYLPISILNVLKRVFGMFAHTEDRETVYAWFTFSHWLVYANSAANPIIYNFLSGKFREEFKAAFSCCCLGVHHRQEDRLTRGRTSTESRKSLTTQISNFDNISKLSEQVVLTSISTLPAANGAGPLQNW
As to the kind of experiment: Effective agonist concentration to the human Orexin receptor type 2 was determined using the Xlfit program. It is filed as functional.

A short description of test [2]: Ratio of orexin-1 receptor to orexin-2 receptor in human.
Test [3] deals with T2, Orexin/Hypocretin receptor type 1 (Homo sapiens, UniProt O43613).
T2 sequence (O43613 whole entry): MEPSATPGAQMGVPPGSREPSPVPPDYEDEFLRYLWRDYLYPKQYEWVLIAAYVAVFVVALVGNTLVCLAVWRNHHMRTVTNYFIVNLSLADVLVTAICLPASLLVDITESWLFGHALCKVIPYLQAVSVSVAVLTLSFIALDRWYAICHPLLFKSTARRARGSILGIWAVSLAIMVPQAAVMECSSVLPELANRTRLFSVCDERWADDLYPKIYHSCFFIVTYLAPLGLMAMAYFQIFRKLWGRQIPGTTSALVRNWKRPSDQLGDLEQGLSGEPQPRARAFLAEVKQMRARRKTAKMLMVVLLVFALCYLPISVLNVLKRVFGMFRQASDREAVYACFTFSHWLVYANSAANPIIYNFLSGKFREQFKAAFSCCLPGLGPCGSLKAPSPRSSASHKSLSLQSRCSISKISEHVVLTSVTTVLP
As to the kind of experiment: Effective agonist concentration to human orexin receptor type 1 determined using the Xlfit program. The format is functional.

Residues, ends and D or L forms follow the SMILES beside them.

The term EC50 denotes the concentration that produces a half-maximal response. Higher therefore signals weaker potency.

`CC[C@H](C)[C@H](NC(=O)CNC(=O)[C@H](C)NC(=O)[C@H](C)NC(=O)[C@H](Cc1c[nH]cn1)NC(=O)[C@H](CC(N)=O)NC(=O)CNC(=O)[C@H](C)NC(=O)CNC(=O)[C@H](Cc1c[nH]cn1)NC(=O)[C@H](CC(C)C)NC(=O)[C@H](CC(C)C)NC(=O)[C@H](CCC(=O)O)NC(=O)[C@H](Cc1ccc(O)cc1)NC(=O)[C@H](CC(C)C)NC(=O)[C@H](CCCN=C(N)N)NC(=O)[C@H](CS)NC(=O)[C@H](CO)NC(=O)[C@H](CS)NC(=O)[C@@H](NC(=O)[C@H](CCCCN)NC(=O)[C@H](CCC(N)=O)NC(=O)[C@H](CCCN=C(N)N)NC(=O)[C@H](CS)NC(=O)[C@H](CS)NC(=O)[C@H](CC(=O)O)NC(=O)[C@@H]1CCCN1C(=O)[C@H](CC(C)C)NC(=O)[C@@H]1CCCN1)[C@@H](C)O)C(=O)N[C@@H](CC(C)C)C(=O)N[C@H](C(=O)N[C@@H](CC(C)C)C(=O)O)[C@@H](C)O`: the EC50 in test [1] is 2.51 µM; in test [3], 0.86 µM. Also, the Ratio in test [2] came to 0.3.

`CC[C@H](C)[C@H](NC(=O)CNC(=O)[C@H](C)NC(=O)[C@H](C)NC(=O)[C@H](Cc1c[nH]cn1)NC(=O)[C@H](CC(N)=O)NC(=O)CNC(=O)[C@H](CO)NC(=O)[C@H](C)NC(=O)[C@H](CCC(N)=O)NC(=O)[C@H](CC(C)C)NC(=O)[C@H](C)NC(=O)[C@H](CCCN=C(N)N)NC(=O)[C@H](CCC(N)=O)NC(=O)[C@H](CC(C)C)NC(=O)[C@H](CCCN=C(N)N)NC(=O)CNC(=O)[C@H](CCC(N)=O)NC(=O)[C@H](CC(C)C)NC(=O)CN)C(=O)N[C@@H](CC(C)C)C(=O)N[C@H](C(=O)N[C@@H](CCSC)C(=O)O)[C@@H](C)O` (H-GLQGRLQRALQASGNHAAGILTM-OH): the concentration giving a half-maximal response (EC50) in test [1] was 2.28 µM; in test [3] it was 5.89 µM. The Ratio in test [2] worked out at 2.6.

Turning to `CC[C@H](C)[C@H](NC(=O)CNC(=O)[C@H](C)NC(=O)[C@H](C)NC(=O)[C@H](Cc1c[nH]cn1)NC(=O)[C@H](CC(N)=O)NC(=O)CNC(=O)[C@H](CO)NC(=O)[C@H](C)NC(=O)[C@@H]1CCCN1C(=O)[C@H](CC(C)C)NC(=O)[C@H](CC(C)C)NC(=O)[C@H](CCCN=C(N)N)NC(=O)[C@H](CCC(N)=O)NC(=O)[C@H](CC(C)C)NC(=O)[C@H](CCCN=C(N)N)NC(=O)CNC(=O)[C@H](CCC(N)=O)NC(=O)[C@H](CC(C)C)NC(=O)CN)C(=O)N[C@@H](CC(C)C)C(=O)N[C@H](C(=O)N[C@@H](CCSC)C(=O)O)[C@@H](C)O` (H-GLQGRLQRLLPASGNHAAGILTM-OH), the concentration for a half-maximal effect (EC50) was 2.48 µM in test [1] and 9.49 µM in test [3]. For the same compound, in test [2], the Ratio came to 3.8.

In the case of `CC[C@H](C)[C@H](NC(=O)CNC(=O)[C@H](C)NC(=O)[C@H](C)NC(=O)[C@H](Cc1c[nH]cn1)NC(=O)[C@H](CC(N)=O)NC(=O)CNC(=O)[C@H](CO)NC(=O)[C@H](C)NC(=O)[C@H](CCC(N)=O)NC(=O)[C@H](CC(C)C)NC(=O)[C@H](CC(C)C)NC(=O)[C@H](CCCN=C(N)N)NC(=O)[C@H](CCC(N)=O)NC(=O)[C@H](CC(C)C)NC(=O)[C@H](CCCN=C(N)N)NC(=O)CNC(=O)[C@H](CCC(N)=O)NC(=O)[C@H](CC(C)C)NC(=O)CN)C(=O)N[C@@H](CC(C)C)C(=O)N[C@@H](C)C(=O)N[C@@H](CCSC)C(=O)O` (H-GLQGRLQRLLQASGNHAAGILAM-OH), the concentration for a half-maximal effect (EC50) in test [1] is 0.76 µM; in test [3] it was greater than 1000 µM. Moreover, the Ratio in test [2] was greater than 1350.

On to `CC[C@H](C)[C@H](NC(=O)CNC(=O)[C@H](C)NC(=O)[C@H](C)NC(=O)[C@H](Cc1c[nH]cn1)NC(=O)[C@H](CC(N)=O)NC(=O)CNC(=O)[C@H](CO)NC(=O)[C@H](C)NC(=O)[C@H](CCC(N)=O)NC(=O)[C@H](CC(C)C)NC(=O)[C@H](CC(C)C)NC(=O)[C@H](CCCN=C(N)N)NC(=O)[C@H](CCC(N)=O)NC(=O)[C@H](CC(C)C)NC(=O)[C@H](CCCN=C(N)N)NC(=O)CNC(=O)[C@H](CCC(N)=O)NC(=O)[C@H](CC(C)C)NC(=O)CN)C(=O)N[C@@H](CC(C)C)C(=O)N[C@H](C(=O)N[C@@H](C)C(=O)O)[C@@H](C)O` (H-GLQGRLQRLLQASGNHAAGILTA-OH), for which the half-maximal effective concentration (EC50) in test [1] is 0.75 µM; in test [3] it was 4.84 µM. Further, in test [2], the Ratio is 6.5.

Consider `CC[C@H](C)[C@H](NC(=O)CNC(=O)[C@H](C)NC(=O)[C@H](C)NC(=O)[C@H](Cc1c[nH]cn1)NC(=O)[C@H](CC(N)=O)NC(=O)CNC(=O)[C@H](CO)NC(=O)[C@H](C)NC(=O)[C@H](CCC(N)=O)NC(=O)[C@H](CC(C)C)NC(=O)[C@H](CC(C)C)NC(=O)[C@H](CCCN=C(N)N)NC(=O)[C@H](CCC(N)=O)NC(=O)[C@H](CC(C)C)NC(=O)[C@H](CCCN=C(N)N)NC(=O)CNC(=O)[C@H](CCC(N)=O)NC(=O)[C@H](CC(C)C)NC(=O)CN)C(=O)N[C@@H](CC(C)C)C(=O)N[C@H](C(=O)N1CCC[C@H]1C(=O)O)[C@@H](C)O` (H-GLQGRLQRLLQASGNHAAGILTP-OH), for which the EC50 was 3.63 µM in test [1] and greater than 1000 µM in test [3]. Moreover, the Ratio in test [2] is greater than 275.

Consider `CC[C@H](C)[C@H](NC(=O)CNC(=O)[C@H](C)NC(=O)[C@H](C)NC(=O)[C@H](Cc1c[nH]cn1)NC(=O)[C@H](CC(N)=O)NC(=O)CNC(=O)[C@H](CO)NC(=O)[C@H](C)NC(=O)[C@H](CCC(N)=O)NC(=O)[C@H](CC(C)C)NC(=O)[C@H](CC(C)C)NC(=O)[C@H](CCCN=C(N)N)NC(=O)[C@H](CCC(N)=O)NC(=O)[C@H](CC(C)C)NC(=O)[C@H](CCCN=C(N)N)NC(=O)CNC(=O)[C@H](CCC(N)=O)NC(=O)[C@H](CC(C)C)NC(=O)CN)C(=O)N1CCC[C@H]1C(=O)N[C@H](C(=O)N[C@@H](CCSC)C(=O)O)[C@@H](C)O` (H-GLQGRLQRLLQASGNHAAGIPTM-OH), for which the EC50 stood at 0.63 µM in test [1] and 8.77 µM in test [3]. Also, the Ratio in test [2] turned out to be 13.9.

`CC[C@H](C)[C@H](NC(=O)[C@@H]1CCCN1C(=O)[C@H](C)NC(=O)[C@H](C)NC(=O)[C@H](Cc1c[nH]cn1)NC(=O)[C@H](CC(N)=O)NC(=O)CNC(=O)[C@H](CO)NC(=O)[C@H](C)NC(=O)[C@H](CCC(N)=O)NC(=O)[C@H](CC(C)C)NC(=O)[C@H](CC(C)C)NC(=O)[C@H](CCCN=C(N)N)NC(=O)[C@H](CCC(N)=O)NC(=O)[C@H](CC(C)C)NC(=O)[C@H](CCCN=C(N)N)NC(=O)CNC(=O)[C@H](CCC(N)=O)NC(=O)[C@H](CC(C)C)NC(=O)CN)C(=O)N[C@@H](CC(C)C)C(=O)N[C@H](C(=O)N[C@@H](CCSC)C(=O)O)[C@@H](C)O` (H-GLQGRLQRLLQASGNHAAPILTM-OH): the EC50 in test [1] was 9.43 µM; in test [3] it was greater than 1000 µM. For the same compound, in test [2], the Ratio was greater than 105.

`CC[C@H](C)[C@H](NC(=O)CNC(=O)[C@H](C)NC(=O)[C@H](C)NC(=O)[C@H](Cc1c[nH]cn1)NC(=O)[C@H](CC(N)=O)NC(=O)CNC(=O)[C@H](CO)NC(=O)[C@H](C)NC(=O)[C@H](CCC(N)=O)NC(=O)[C@@H]1CCCN1C(=O)[C@H](CC(C)C)NC(=O)[C@H](CCCN=C(N)N)NC(=O)[C@H](CCC(N)=O)NC(=O)[C@H](CC(C)C)NC(=O)[C@H](CCCN=C(N)N)NC(=O)CNC(=O)[C@H](CCC(N)=O)NC(=O)[C@H](CC(C)C)NC(=O)CN)C(=O)N[C@@H](CC(C)C)C(=O)N[C@H](C(=O)N[C@@H](CCSC)C(=O)O)[C@@H](C)O` (H-GLQGRLQRLPQASGNHAAGILTM-OH): the EC50 is 20.1 µM in test [1] and greater than 1000 µM in test [3]. Moreover, the Ratio in test [2] was greater than 50.

With `CC[C@H](C)[C@H](NC(=O)CNC(=O)[C@H](C)NC(=O)[C@H](C)NC(=O)[C@H](Cc1c[nH]cn1)NC(=O)[C@H](CC(N)=O)NC(=O)CNC(=O)[C@H](CO)NC(=O)[C@H](C)NC(=O)[C@H](CCC(N)=O)NC(=O)[C@H](CC(C)C)NC(=O)[C@H](CC(C)C)NC(=O)[C@H](CCCN=C(N)N)NC(=O)[C@H](CCC(N)=O)NC(=O)[C@H](CC(C)C)NC(=O)[C@H](CCCN=C(N)N)NC(=O)CNC(=O)[C@H](CCC(N)=O)NC(=O)[C@H](CC(C)C)NC(=O)[C@@H]1CCCN1)C(=O)N[C@@H](CC(C)C)C(=O)N[C@H](C(=O)N[C@@H](CCSC)C(=O)O)[C@@H](C)O` (H-PLQGRLQRLLQASGNHAAGILTM-OH), the EC50 in test [1] was 0.49 µM; in test [3], 8.28 µM. In addition, the Ratio in test [2] came to 16.9.

The values are drawn from ChEMBL document CHEMBL1148480, “Structure-activity studies of orexin a and orexin B at the human orexin 1 and orexin 2 receptors led to orexin 2 receptor selective and orexin 1 receptor preferring ligands” (J Med Chem, 2004).
